Source: patent publication US20100093748A1, “SUBSTITUTED PIPERIDINES HAVING PROTEIN KINASE INHIBITING ACTIVITY” (ASTEX THERAPEUTICS LIMITED, priority 2006, published 2010)

Key:
PKB-PIF fusion protein = target: T1, PKB-PIF fusion protein (Homo sapiens, UniProt P31751); assay: Measurement of PKB kinase inhibitory activity (IC50), radiometric filter plate assay; type: biochemical; settings: 0.6 nM enzyme, 30 μM ATP, AKTide-2T substrate, 20 minutes
T1 construct: PIF (fusion partner); made in house
Source text: The inhibition of protein kinase B (PKB) activity by compounds can be determined essentially as described by Andjelkovic et al. (Mol. Cell. Biol. 19, 5061-5072 (1999)) but using a fusion protein described as PKB-PIF and described in full by Yang et al (Nature Structural Biology 9, 940-944 (2002)). The protein is purified and activated with PDK1 as described by Yang et al. The peptide AKTide-2T (H-A-R-K-R-E-R-T-Y-S-F-G-H-H-A-OH) obtained from Calbiochem (#123900) is used as a substrate. A final concentration of 0.6 nM enzyme is used in a buffer that includes 20 mM MOPS pH 7.2, 30 μM ATP/γ^33P-ATP and 25 µM substrate. Compounds are added in DMSO solution to a final DMSO concentration of 2.5%. The reaction is allowed to proceed for 20 minutes before addition of excess orthophosphoric acid to quench activity. The reaction mixture is transferred to a phosphocellulose filter plate where the peptide binds and the unused ATP is washed away. After washing, scintillant is added and the incorporated activity measured by scintillation counting.
The % inhibition of the PKB activity is calculated and plotted in order to determine the concentration of test compound required to inhibit 50% of the PKB activity (IC50).

PKA catalytic domain = target: T2, PKA catalytic domain (Homo sapiens, UniProt P17612); assay: Measurement of PKA kinase inhibitory activity (IC50), radiometric filter plate assay; type: biochemical; settings: 1 nM enzyme, 40 μM ATP, 20 minutes
T2 construct: using the PKA catalytic domain from Upstate Biotechnology (#14-440); purchased Upstate Biotechnology 14-440
Procedure: Compounds of the invention can be tested for PK inhibitory activity using the PKA catalytic domain from Upstate Biotechnology (#14-440) and the 9 residue PKA specific peptide (GRTGRRNSI), also from Upstate Biotechnology (#12-257), as the substrate. A final concentration of 1 nM enzyme is used in a buffer that includes 20 mM MOPS pH 7.2, 40 μM ATP/γ^33P-ATP and […] substrate. Compounds are added in dimethylsulphoxide (DMSO) solution to a final DMSO concentration of 2.5%. The reaction is allowed to proceed for 20 minutes before addition of excess orthophosphoric acid to quench activity. Unincorporated γ^33P-ATP is then separated from phosphorylated proteins on a Millipore MAPH filter plate. The plates are washed, scintillant is added and the plates are then subjected to counting on a Packard Topcount.
The % inhibition of the PKA activity is calculated and plotted in order to determine the concentration of test compound required to inhibit 50% of the PKA activity (IC50).

[1] = tested on: phosphorylation of Serine-9 residue in Glycogen Synthase Kinase-3beta as surrogate marker of cellular PKB (Akt) activity; assay: In vitro MDA-MB-468 human breast adenocarcinoma GSK-3 phosphorylation assay; type: cell-based; settings: MDA-MB-468 cells, 2 hours compound incubation, mean IC50, read-out: Cell pGSK3b IC50
Procedure, shortened: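 MDA-MB-468 cells (5000/well) were treated with compound for 2 h at 37° C, then fixed and immunostained for phospho-Ser9 GSK-3β with an Alexa Fluor 488 secondary antibody. Fluorescence was quantified on an Acumen Explorer. IC50 came from a background-corrected 4-parameter logistic fit with minimum set to zero; obvious outliers were excluded from means.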

T1 sequence (P31751 with tags, fused parts or gaps limits assumed): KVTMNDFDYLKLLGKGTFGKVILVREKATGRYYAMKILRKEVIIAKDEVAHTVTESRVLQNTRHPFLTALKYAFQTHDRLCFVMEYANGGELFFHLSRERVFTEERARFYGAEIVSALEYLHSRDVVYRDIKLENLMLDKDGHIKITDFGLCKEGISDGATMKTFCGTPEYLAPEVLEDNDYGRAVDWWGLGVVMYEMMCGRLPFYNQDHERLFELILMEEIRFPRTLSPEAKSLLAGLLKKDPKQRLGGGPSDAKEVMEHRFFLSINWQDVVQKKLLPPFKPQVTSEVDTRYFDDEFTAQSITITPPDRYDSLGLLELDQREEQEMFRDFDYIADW

Row | SMILES | IC50 (PKB-PIF fusion protein) [nM] | IC50 (PKA catalytic domain) [nM] | IC50 [1] [nM]
1 | COc1ccc2[nH]c(C3(N)CCN(c4ncnc5[nH]ccc45)CC3)nc2c1 [Example 8, 4-(5-Methoxy-1H-benzoimidazol-2-yl)-1-(7H-pyrrolo[2,3-d]pyrimidin-4-yl)-piperidin-4-ylamine] | < 100 | < 1000 | 
2 | NC1(c2nc3cc(F)cc(F)c3[nH]2)CCN(c2ncnc3[nH]ccc23)CC1 [Example 7, 4-(5,7-Difluoro-1H-benzoimidazol-2-yl)-1-(7H-pyrrolo[2,3-d]pyrimidin-4-yl)-piperidin-4-ylamine] | < 100 |  | 940
3 | NC1(c2nc3cccc(F)c3[nH]2)CCN(c2ncnc3[nH]ccc23)CC1 [Example 1, 4-(7-Fluoro-1H-benzoimidazol-2-yl)-1-(7H-pyrrolo[2,3-d]pyrimidin-4-yl)-piperidin-4-ylamine] | < 100 | < 1000 | 
4 | NC1(c2nc3ccccc3o2)CCN(c2ncnc3[nH]ccc23)CC1 [Example 37, 4-Benzooxazol-2-yl-1-(7H-pyrrolo[2,3-d]pyrimidin-4-yl)-piperidin-4-ylamine] | < 100 | < 1000 | 
5 | Cc1cccc2nc(C3(N)CCN(c4ncnc5[nH]ccc45)CC3)[nH]c12 [Example 4, 4-(7-Methyl-1H-benzoimidazol-2-yl)-1-(7H-pyrrolo[2,3-d]pyrimidine-4-yl)-piperidin-4-ylamine] | < 100 | < 1000 | 
6 | NC1(c2nc3ccc(F)cc3[nH]2)CCN(c2ncnc3[nH]ccc23)CC1 [Example 6, 4-(6-Fluoro-1H-benzoimidazol-2-yl)-1-(7H-pyrrolo[2,3-d]pyrimidin-4-yl)-piperidin-4-ylamine] | < 100 | < 1000 | 560
7 | NC1(c2nc3ccccc3[nH]2)CCN(c2ncnc3[nH]c(=O)[nH]c23)CC1 [Example 18, 6-[4-amino-4-(1H-benzoimidazol-2-yl)-piperidin-1-yl]-7,9-dihydro-purin-8-one] | < 100 | < 1000 | 
8 | NC1(c2nc3ccccc3[nH]2)CCN(c2ncnc3[nH]ccc23)CC1 [Example 12, 4-(1H-benzoimidazol-2-yl)-1-(7H-pyrrolo[2,3-d]pyrimidin-4-yl)-piperidin-4-ylamine] | < 100 | < 1000 | 
9 | OCC1(c2nc3ccccc3[nH]2)CCN(c2ncnc3[nH]ccc23)CC1 [Example 35, [4-(1H-Benzoimidazol-2-yl)-1-(7H-pyrrolo[2,3-d]pyrimidin-4-yl)-piperidin-4-yl]-methanol] | < 1000 | < 1000 | 
10 | Cc1ccc2nc(C3(N)CCN(c4ncnc5[nH]cnc45)CC3)[nH]c2c1 [Example 17, 4-(6-Methyl-1H-benzoimidazol-2-yl)-1-(9H-purin-6-yl)-piperidin-4-ylamine] | < 100 | < 1000 | 320
11 | NC1(c2nc3ccc(Cl)cc3[nH]2)CCN(c2ccnc3[nH]ccc23)CC1 [Example 20, 4-(6-chloro-1H-benzoimidazol-2-yl)-1-(1H-pyrrolo[2,3-b]pyridin-4-yl)-piperidin-4-ylamine] | < 100 |  | 
12 | NC1(c2ncc(-c3ccccc3)[nH]2)CCN(c2ncnc3[nH]ccc23)CC1 [Example 39, 4-(5-Phenyl-1H-imidazol-2-yl)-1-(7H-pyrrolo[2,3-d]pyrimidin-4-yl)-piperidin-4-ylamine] | < 100 |  | 
13 | NC1(c2nc3cc(F)c(F)cc3[nH]2)CCN(c2ncnc3[nH]ccc23)CC1 [Example 2, 4-(5,6-Difluoro-1H-benzoimidazol-2-yl)-1-(7H-pyrrolo[2,3-d]pyrimidin-4-yl)-piperidin-4-ylamine] | < 100 | < 1000 | 
14 | Cc1ccc2nc(C3(N)CCN(c4ncnc5[nH]ccc45)CC3)[nH]c2c1 [Example 5, 4-(6-Methyl-1H-benzoimidazol-2-yl)-1-(7H-pyrrolo[2,3-d]pyrimidin-4-yl)-piperidin-4-ylamine] | < 100 |  | 
15 | NC1(c2nc3ccccc3o2)CCN(c2ncnc3[nH]c(=O)[nH]c23)CC1 [Example 38, 6-(4-amino-4-benzooxazol-2-yl-piperidin-1-yl)-7,9-dihydro-purin-8-one] | < 1000 |  | 
16 | NCC1(c2nc3ccccc3o2)CCN(c2ncnc3[nH]ccc23)CC1 [Example 36, C-[4-Benzooxazol-2-yl-1-(7H-pyrrolo[2,3-d]pyrimidin-4-yl)-piperidin-4-yl]-methylamine] | < 100 |  | 
17 | NC1(c2nc3ccc(F)c(F)c3[nH]2)CCN(c2ncnc3[nH]ccc23)CC1 [Example 3, 4-(6,7-Difluoro-1H-benzoimidazol-2-yl)-1-(7H-pyrrolo[2,3-d]pyrimidin-4-yl)-piperidin-4-ylamine] | < 100 | < 1000 | 
